For one series, the system named is EG7-OVA cells. Nature of the series: Tumor-specific immunity after topical vaccination, subcutaneous tumor challenge, tumor size. Particulars: for inhibiting tumor cell growth: Figure 4. The format is in vivo, C57BL/6. As for the experimental part: (§1) The C57BL/6 thymoma tumor cell line, EL4, was transfected with the complete gene for chicken ovalbumin (OVA). The resulting transfected cell line, EG7-OVA, expresses chicken ovalbumin. […] Based on the positive results using FITC, the inventors followed a similar protocol in an attempt to induce immunity to the EG7-OVA tumor by topical administration of the well-characterized, synthetic […] tumor-associated peptide.
C57BU6 mice were treated as follows: 1) shaving alone; 2) topical administration of acetone and dibutylphthalate; 3) […] (240 :g/ml) in DMSO diluted in PBS, followed in 5 hours by acetone and dibutylphthalate; and 4) […] (240 :g/ml) in acetone and dibutylphthalate. All mice were subsequently injected subcutaneously with 5 × 10^5 EG7-OVA cells (5-times the minimal tumorogenic dose). Tumor-specific immunity was monitored by measuring tumor size.
(§2) The mucous membranes lack the tough barrier posed by the stratum corneum. […] The EL4 parent tumor cell line, lacking chicken ovalbumin, was used as a […]; no immunity against the EL4 tumor cells was seen. Thus, the inventors' hypothesis regarding penetration of the stratum corneum was confirmed; the […] peptide was not reaching the Langerhans cells underlying the stratum corneum.
While intravaginal topical administration of tumor antigen provided an effective means of routing antigen to the Langerhans cells for subsequent induction of tumor-specific immunity, mucous membrane application sites, like the vagina, are not well-suited for convenient use and monitoring by general practitioners likely to be involved in administering the topical vaccinations of the present invention. Thus, to enhance the effectiveness of cutaneous topical administration, […] was dissolved in DMSO and applied to the skin without dilution. Dibutylphthalate in acetone was applied to the same site 5 hr later. All mice were subsequently injected subcutaneously with 5 x 10^5 EG7-OVA cells. The results shown in Figure 6 indicate that the peptide in DMSO was able to traverse the stratum corneum, effectively gaining access to the Langerhans cells. Tumor growth was suppressed after 6 to 9 days and even the established tumors were completely eliminated by 16 days post-inoculation. Thus, the tumor specific peptide, […], in concentrated DMSO, penetrated the stratum corneum, was incorporated into the MHC class I molecule K^b on epidermal Langerhans cells, and in the presence of the migration inducer, dibutylphthalate, was effectively presented to CD8+ CTLs in the lymph nodes.

The test system of a further series is Langerhans cells. Nature of the series: FITC Langerhans cell migration screening, draining inguinal lymph node, flow cytometry. The series is classed as in vivo, C57BL/6 mice. Particulars: for FITC+ Langerhans cell number / total dendritic cell migration into the lymph node / nonspecific immigration: agent added to topical FITC in acetone, 2 days after treatment, Figure 1; for Total MHC class II^th cells, distance from the positive control, dibutylphthalate (DBP): 5 mg/ml FITC in acetone and migration inducer, 100 µl, after 2 days, Figure 7. The source says:
Fluorescein isothiocyanate (FITC) has been used extensively by the inventor and others, to characterize Langerhans cell migration. FITC is a small (mw 389) non-peptide, largely lipophilic molecule, capable of crossing the stratum corneum. Immunogenicity of FITC is due to the reactivity of its isothiocyanate group (-N-C-S) with free amino groups, permitting it to be covalently bound to proteins and/or peptides. C57BL/6 mice received the following treatments: 1) none; 2) abdomen shaving only; 3) topical administration of FITC in acetone; 4) topical administration of FITC in acetone and olive oil; 5) topical administration of FITC in acetone and DMSO diluted in phosphate buffered saline (PBS); and 6) topical administration of FITC in acetone and dibutylphthalate. The draining inguinal lymph nodes were then examined for immigrant Langerhans cells by immunofluorescent flow cytometry each day thereafter. Migratory Langerhans cells were identified by the presence of FITC and expression of high MHC class II molecules or by a Langerhans cell-specific monoclonal antibody (NLDC-145). Other dendritic cell residents of the lymph nodes could also be differentiated using a dendritic cell-specific monoclonal antibody, 33D1. The uptake of FITC and the Langerhans cell response to migratory signals were observable in the draining lymph node as early as six hours after topical administration. However, 48-72 hours was required for maximal rate of immigration into the lymph node. Figure 1 illustrates the effect of the various treatment regimens on total and FITC + lymphoid dendritic cells 2 days after treatment. […] Thus, dibutylphthalate was a very potent migration inducer.
High numbers of FITC+ Langerhans cells were present in the lymph node by 12 hours and the peak frequency of immigrant FITC+ Langerhans cells occurred about 2 to 3 days following topical administration. […] The unlabeled dendritic cells were most likely Langerhans cells that had lost the FITC label. Five days after skin painting, the lymph node cell population had increased by approximately 7.2 fold over baseline levels.
Compounds which are useful as inducers of Langerhans cell migration may be screened using the standard FITC methods described for the data presented in Figures 1-3. C57BL6 mice are shaved on their abdomens and painted with 100 µl test solution, containing 5 mg/ml FITC in a 50150 (v/v) mixture of acetone and the migration inducer (e.g. dibutylphthalate). After 2 days, the draining inguinal lymph node is removed and the total number of dendritic cells (both FITC+ and FITC-) is determined by flow cytometry and MHC class II immunoassay.

The next series has as its system EL4 tumor cells. Nature of the series: Specificity control of intravaginal topical vaccination, parent tumor challenge. The series is classed as in vivo, C57BL/6. As to conditions: intravaginal topical application, SIINFEKL in acetone and dibutylphthalate; Figure 5.
From the text: as §1, §2

The conditions of series [1]: iontophoresis; cited from earlier work.

Regarding `CCCCOC(=O)c1ccccc1C(=O)OCCCC` [dibutylphthalate], the “inhibiting tumor cell growth” value in the series with EG7-OVA cells (cutaneous topical acetone and dibutylphthalate without peptide, 5 × 10^5 EG7-OVA cells s.c.) is “none of the treatment protocols were effective”. Moreover, in the series on Langerhans cells, the “FITC+ Langerhans cell number” value is given as “striking effect” and the “total dendritic cell migration into the lymph node / nonspecific immigration” value is “striking effect”.
Turning to Fluorescein isothiocyanate [FITC], the “time required for maximal rate of immigration into the lymph node” value in the series on Langerhans cells (after topical administration) was in the range of 48 to 72 h.
For the molecule `CCCCCCCCCOC(=O)c1ccccc1C(=O)OCCCCCCCCC` [DNP, dinonylphthalate], the “Total MHC class II^th cells, distance from the positive control, dibutylphthalate (DBP)” value (shortened to “Total MHC class II^th cells, distance”) in the series on Langerhans cells is on record as not above 1 standard deviation.
On the same count and under the same terms, the result for `CC12CCC(CC1=O)C2(C)C` (stereo not shown) [C, camphor] reads not above 1 standard deviation.
As to `CC[C@H](C)[C@H](NC(=O)[C@@H](NC(=O)[C@@H](N)CO)[C@@H](C)CC)C(=O)N[C@@H](CC(N)=O)C(=O)N[C@@H](Cc1ccccc1)C(=O)N[C@@H](CCC(=O)O)C(=O)N[C@@H](CCCCN)C(=O)N[C@@H](CC(C)C)C(=O)O`, the “immunity against the EL4 tumor cells” value with EL4 tumor cells is “no immunity”. Besides, the “inhibiting tumor cell growth” value in the series with EG7-OVA cells (cutaneous, SIINFEKL (240 :g/ml) in DMSO diluted in PBS, followed in 5 hours by acetone and dibutylphthalate) is reported as “none of the treatment protocols were effective”; in the series with EG7-OVA cells (cutaneous, SIINFEKL (240 :g/ml) in acetone and dibutylphthalate) it was “none of the treatment protocols were effective”. Moreover, the “time by which established tumors were completely eliminated” value in the series with EG7-OVA cells (cutaneous, SIINFEKL in undiluted DMSO, dibutylphthalate in acetone at same site 5 hr later, Figure 6) is recorded as not above 16 days post-inoculation. Further, the “protection against the tumor” value with EG7-OVA cells (intravaginal topical application, SIINFEKL in acetone and dibutylphthalate, Figure 5) is “complete protection”.
dibenzylbutylphthalate [DBBP]: in the series with Langerhans cells, the “Total MHC class II^th cells, distance” value was not above 1 standard deviation.
Consider `NC(=O)CC[C@@H]1NC(=O)[C@H](Cc2ccccc2)NC(=O)[C@H](Cc2ccc(O)cc2)NC(=O)[C@@H](N)CSSC[C@@H](C(=O)N2CCC[C@H]2C(=O)N[C@@H](CCCN=C(N)N)C(=O)NCC(N)=O)NC(=O)[C@H](CC(N)=O)NC1=O` [vassopressin], for which, in series [1], the “fraction that crossed the stratum corneum” value is listed as “about 0.4 % per hour”.
`C[S+](C)[O-]` [DMSO, dimethylsulfoxide]: in the series with Langerhans cells, the “FITC+ Langerhans cell number” value is given as “no enhancement” and the “total dendritic cell migration into the lymph node / nonspecific immigration” value is reported as “modest stimulatory effect”.
Regarding `CCCCOC(=O)[C@@H](O)[C@H](O)C(=O)OCCCC` [DBT, dibutyl-D-tartrate], in the series with Langerhans cells, the “Total MHC class II^th cells, distance” value is given as not above 1 standard deviation.
